# Where “and” joins values, the source holds several entries; their conditions need not be identical. Equal values may be shown once. Read-outs that look alike come from different tables or passages of the source. Ends that are not written are not given here. Peptide text beside a SMILES is read from it.
# What was measured:
# ASM cells = conditions: cited from earlier work; for proliferative response in ASM cells: dose range of 10^−12 to 10^−6M
# guinea pig ileum = conditions: read-out: K0.5; cited from earlier work
# spleen cell = conditions: 25 μg/ml of salivary gland extract, cited from earlier work
# warts = assay: human wart trial, subcutaneous injection into the wart; format: in vivo
# Experimental: A trial was conducted to observe the anti-proliferative action of Sialokinins, SEQ. ID. NO. 1 and NO. 2, in the treatment of warts in a human application. This trial, conducted by a dermatologist, involved four volunteer human subjects who received two (2) subcutaneous injections of Sialokinin I and Sialokinin II into the wart. Injections of 100 μl of 5 μM were administered subcutaneously to each volunteer.
# The warts chosen for this trial had been diagnosed as stable and thus any observable change in the size of the wart to the injections would be significant. […] Of the 3 patients, reductions in size of 19%, 79%, and 31% were observed. When no further treatments were administered, no further reductions were observed.
# [1] = tested on: Lewis lung carcinoma cells; assay: in vivo tumorigenicity model, Lewis lung carcinoma in immuno-compromised (nu/nu) mice, intravenous injection
# Experimental: To test the efficacy of different concentrations of the Sialokinin peptides, test articles, SEQ. ID. NO. 1 and NO. 2, in an in vivo tumorigenicity model, a study was conducted with Lewis lung carcinoma in immuno-compromised (nu/nu) mice. Lewis lung carcinoma cells were cultured in Dulbecco's Modified Eagles Medium (DMEM), supplemented with 4 mM L-glutamine, 0.1 mM non-essential amino acids, 10% heat inactivated fetal bovine serum (FBS), […] Gentamicin and 250 μg/ml Fungizone. Cells were cultured in 5% CO2 and 95% air at 37° C. Exponentially growing cells were harvested and washed twice in phosphate buffered saline (PBS) to remove any traces of trypsin or serum. The washed cells were suspended in Hanks Balanced Salt Solution (HBSS) for injection.
# Athymic nude mice were injected subcutaneously in the right lateral thorax with 10^4 Lewis lung carcinoma cells. A total of 38 mice were injected, with 33 tumor-bearing mice used in the study. When tumors reached a target window size of 100-200 mg, 33 tumor-bearing mice were randomly selected and sorted into one of three groups. Group 1 contained mice that received the test article carrier by an IV injection as a negative control. […]
# Tumor measurements were recorded three times a week using calipers. […] Clinical observations on each mouse were done twice weekly for signs of toxicity and morbidity and any abnormal findings were recorded. […]
# [2] = tested on: Lewis lung carcinoma cells; assay: in vivo tumorigenicity model, Lewis lung carcinoma in C57Bl/6 mice, intra-tumor injection; conditions: for tumor growth inhibition: Cisplatin group
# Experimental: The inhibitory action of Sialokinin I and II, SEQ. ID. NO. 1 and NO. 2, against tumor tissue proliferation (Lewis lung carcinoma) was investigated. To test the efficacy of three different concentrations of peptide test articles in an in vivo tumorigenicity model using Lewis lung carcinoma cells.
# Lewis lung carcinoma cells were obtained from ATCC and cultured in monolayers in DMEM supplemented with 10% heat-inactivated FBS, 4 mM L-glutamine, 100 μg/ml streptomycin and 100 units/ml penicillin for two passage cycles at 37° C. in 95% air and 5% CO2. Cells were harvested from subconfluent cultures by 60-second exposure to trypsin/EDTA, washed in serum free medium and brought to the correct concentration of cells in PBS.
# On day 0, 35 female C57Bl/6 mice 6-8 weeks of age were shaved on the right lateral thorax and injected subcutaneously with 1.0×10^6 Lewis lung carcinoma cells. A total of 35 mice were injected so that 25 tumor-bearing mice with the correct tumor size could be used for the study. Tumors were allowed to develop for four days post cell injection at which time biweekly tumor measurements (L×W), in millimeters, were recorded for 3 weeks. […] The data are presented as mean tumor mass plotted over time.
# When tumors reached a size of 100-200 mg, 25 mice were selected and randomly sorted into five groups. The five groups of Lewis lung tumor bearing mice were used to test three different test article concentrations.
# The first group contained animals injected with the test article carrier as a control group. The control animals were injected with 50 μl intra-tumor injections of sterile saline and 1% bovine serum albumin (BSA), three times per week for a total of 5 doses. The control group contained mice that received the vehicle as a negative control.
# The second group contained animals treated with 6 mg/kg of Cisplatin (Platinol; Bristol-Myers Squibb Co.) as a positive control administered according to manufacture's specifications by intravenous tail vein injection, every fourth day for a total of 3 doses. The Cisplatin group contained mice that received Cisplatin as a positive control.
# The third group contained animals that received 5 μM of test article dissolved in sterile saline and 1% bovine serum albumin (BSA) injected intra-tumor with 50 μl injections, three times per week for a total of 5 doses.
# The fourth group contained animals that received 10 μM of test article dissolved in sterile saline and 1% bovine serum albumin (BSA) injected intra-tumor with 50 μl injections, three times per week for a total of 5 doses.
# The fifth group contained animals that received 100 μM of test article dissolved in sterile saline and 1% bovine serum albumin (BSA) injected intra-tumor with 50 μl injections, three times per week for a total of 5 doses.
# Injections began on the day that animals were randomly sorted into one of five groups. Animals in the control, 5 μM, 10 μM, and 100 μM groups were dosed every other workday with an intra-tumor subcutaneous injection for a total of 5 doses. Tumor size was measured and recorded twice weekly using calipers. Mice were examined twice weekly for morbidity, and any abnormal findings were recorded. When tumors reached a mean target size of 1000 mg in control mice the animals were euthanized and two mice from each group were randomly selected and sent to necropsy for tumor and tissue collection. Mice were photographed before harvesting tumors and major organs (heart, lung, liver, kidney, spleen, GI tract and brain). No mice died while on study.
# [3] = two 100 μl injections of 5 μM into the wart
molecule,measurement,setting,value
Asp^1-Met^2-His^3-Asp^4-Phe^5-Phe^6-Val^7-Gly^8-Leu^9-Met^10-NH2 (DMHDFFVGLM-NH2) [NKB],proliferative response in ASM cells,ASM cells,Neither NKA nor NKB induced significant proliferative responses
His^1-Lys^2-Thr^3-Asp^4-Ser^5-Phe^6-Val^7-Gly^8-Leu^9-Met^10-NH2 (HKTDSFVGLM-NH2) [NKA],proliferative response in ASM cells,ASM cells,Neither NKA nor NKB induced significant proliferative responses
same,ASM cell count,ASM cells; highest administered concentration of 10^−4M,relatively modest increase in ASM cell count
Arg^1-Pro^2-Lys^3-Pro^4-Gln^5-Gln^6-Phe^7-Phe^8-Gly^9-Leu^10-Met^11-NH2 [Substance P],EC50,guinea pig ileum,4.94 nM
same,concentration eliciting the maximum proliferative response,ASM cells; ASM cells,10^−4 M
same,ASM cell number,ASM cells; concentration range of 10^−14 to 10^−4M,dose-dependent increases in ASM cell number
Asn^1-Thr^2-Gly^3-Asp^4-Lys^5-Phe^6-Tyr^7-Gly^8-Leu^9-Met^10-NH2 (NTGDKFYGLM-NH2; listed as Aedes aegypti) [SK1],suppression of spleen cell proliferation,"spleen cell; stimulated with IL-2, antigen activated cells",39%
same,suppression of spleen cell proliferation,"spleen cell; stimulated with IL-2, naïve cells",66%
same,suppression of spleen cell proliferation,"spleen cell; stimulated with IL-4, antigen activated cells",27%
same,suppression of spleen cell proliferation,"spleen cell; stimulated with IL-4, naïve cells",39%
same,side effects,"warts; first clinical exposure, human",no side effects were detected
same,systemic symptoms,warts; two 100 μl injections of 5 μM,no systemic symptoms were detected
same,toxicity in trial subjects,warts; two 100 μl injections of 5 μM,no measured or observed toxicity
same,patients showing a reduction in wart size,warts; [3],3 of 4
same,reduction in wart size (individual patients),warts; [3],19% and 79% and 31%
same,EC50,guinea pig ileum,6.58 nM
same,"necropsy, toxicity or tissue necrosis",[1]; 200 μl intravenous injection of 5 μM and 10 μM,no detectable toxicity or tissue necrosis
same,weight loss in study animals,"[1]; intravenous 5 μM and 10 μM, during the study period",No weight loss
"CSCC[C@H](NC(=O)[C@H](CC(C)C)NC(=O)CNC(=O)[C@H](Cc1ccc(O)cc1)NC(=O)[C@H](Cc1ccccc1)NC(=O)[C@H](CCCCN)NC(=O)[C@H](CC(=O)O)NC(=O)CNC(=O)[C@@H](NC(=O)[C@@H](N)CC(=O)O)[C@@H](C)O)C(N)=O [Sialokinin II, Asp^1-Thr^2-Gly^3-Asp^4-Lys^5-Phe^6-Tyr^7-Gly^8-Leu^9-Met^10-NH2] (H-DTGDKFYGLM-NH2)",EC50,guinea pig ileum,5.07 nM
N.N.[Cl][Pt][Cl] [Cisplatin],body weight change,[2]; 6 mg/kg intravenous,significant weight loss
same,growth compared to control tumor growth,"[2]; 6 mg/kg intravenous, day 7",58%
same,growth compared to control tumor growth,"[2]; 6 mg/kg intravenous, day 10",93%
same,growth compared to control tumor growth,"[2]; 6 mg/kg intravenous, day 15",73%
same,tumor size compared to control group mice,"[2]; 6 mg/kg intravenous, p<0.05",significantly smaller tumors
same,tumor growth inhibition,[2]; day 7,42%
same,tumor growth inhibition,[2]; day 10,7%
same,tumor growth inhibition,[2]; day 15,27%

# Source: patent US8357653B2, “System and method for inhibiting cellular proliferation with tachykinins” (priority 2000, dated 2013)
